Source: patent US20060167030A1, “Sulfonamido-macrocycles and the salts thereof, a pharmaceutical composition comprising these compounds, the method of preparing and the use thereof” (priority 2004, published 2006)

Assays:
[1] = molecular target: T1, Tie2 (Homo sapiens, UniProt Q02763); test: Tie2 kinase assay or Tie2 autophosphorylation ELISA test (not stated which); type: biochemical; details: either assay; not specified per compound; read-out: IC50 of Tie2 inhibition, either in the Tie2 kinase assay or in the Tie2 autophosphorylation ELISA test
T1 construct: fused on or other part: GST in the kinase assays; none in the CHO cell assay
Excerpt: Biological Experiment 1: ELISA Method
Herein CHO cell-cultures, which are stably transfected by known techniques with Tie2 using DHFR deficiency as selection marker, are stimulated by angiopoietin-2. The specific autophosphorytation of Tie2 receptors is quantified with a sandwich-ELISA using anti-Tie2 antibodies for catch and anti-phosphotyrosine antibodies coupled to HRP as detection.
• 96 well tissue culture plate, sterile, Greiner • 96 well FluoroNunc plate MaxiSorp Surface C, Nunc • 96 well plate polypropylene for compound dilution in DMSO • CHO Tie2/DHFR (transfected cells) • PBS−; PBS++, DMSO • MEM alpha Medium with Glutamax-I without Ribonucleosides and Deoxyribonucleosides (Gibco #32561-029) • with 10% FCS after dialysis! and 1% PenStrep • Lysis buffer: 1 Tablet “Complete” protease inhibitor • 1 cap Vanadate (1 mL>40 mg/mL; working solution 2 mM) • ad 50 mL with Duschl-Puffer • pH 7.6 • Anti-TIE-II antibody 1:425 in Coating Buffer pH 9.6 • Stock solution: 1.275 mg/mL>working: 3 μg/mL • PBST: 2 bottles PBS(10×)+10 ml Tween, fill up with VE-water • RotiBlock 1:10 in VE-water • Anti-Phosphotyrosine HRP-Conjugated 1:10000 in 3% TopBlock • 3% TopBlock in PBST • BM Chemiluminescence ELISA Substrate (POD) • solution B 1:100 solution A • SF9 cell culture medium • Ang2-Fc in SF9 cell culture medium Cell Experiment: • Dispense 5×10^4 cells/well/98 μL in 96 well tissue culture plate • Incubate at 37° C./5% CO2 • After 24 h add compounds according to desired concentrations • Add also to control and stimulated values without compounds 2 μL DMSO • And mix for a few min at room temperature • Add 100 μL Ang2-Fc to all wells except control, which receives insect medium • Incubate 20 min at 37° C. • Wash 3× with PBS++ • Add 100 μl Lysis buffer/well and shake a couple of min at room temperature • Store lysates at […] before utilizing for the ELISA Performance of Sandwich-ELISA • Coat 96 well FluoroNunc Plate MaxiSorp Surface C with anti-Tie2 Mab • 1:425 in Coating buffer pH 9.6; 100 μL/well overnight at 4° C. • Wash 2× with PBST • Blcock plates with 250 μL/well RotiBtock 1:10 in VE-water • Incubate for 2 h at room temperature or overnight at 4° C. shaking • Wash 2× in PBST • Add thawed lysates to wells and incubate overnight shaking at 4° C. • Wash 2× with PBST • Add 100 μL/well anti-Phosphotyrosine HRP-Conjugated 1:10000 in 3% TopBLock (3% TopBLock in PBST) and incubate overnight under shaking • Wash 6× with PBST • Add 100 μL/well BM Chemiluminescence ELISA Substrate (POD) solutions 1 und 2 (1:100) • Determine luminescence with the LumiCount. Biological Experiment 2: Tie-2-Kinase HTRF-Assay
Tie-2 phosphorylates tyrosine residues of the artificial substrate poLyGAT (biolinylated poLyGLuAlaTyr). Detection of phosphorylated product is achieved specifically by a trimeric detection complex consisting of the phosphorylated substrate, streptavidin-XLent (SA-XLent) which binds to biotin, and Europium Cryptate-LabeLed anti-phosphotyrosine antibody PT66 which binds to phosphorylated tyrosine. Excitation of Europium fluorescence with 337 nm light results in emission of long-lived light with 620 nm. In case a trimeric detection complex has formed, part of the energy will be transferred to the SA-XLent fluorophore that itself then emits long-lived light of 665 nm (FRET: fluorescence resonance energy transfer). […] Measurement is performed in a Packard Discovery or BMG Rubystar instrument. A-counts (emission at 665 nm) will be divided by B-counts (emission at 620 nm) and multiplicated with a factor of 10000. The resulting numbers are called the “well ratio” of the sample.
A recombinant fusion protein of GST and the intracellular domains of Tie-2, expressed in insect cells (Hi-5) and purified by Glutathion-Sepharose affinity chromatography was used as kinase. Alternatively, commercially available GST-Tie2-fusion protein (Upstate Biotechnology, Dundee, Scotland) can be used. […]

[2] = Proliferation test / cytotoxicity assay (crystal violet); type: cell-based; details: human, DU 145 tumour cells; cell line DU 145
Method: Biological Experiment 3: Proliferation Test
To examine cell toxicity a cell proliferation test were established.
With the cell proliferation test different tumour cell lines (e.g. Du 145) can be examined. The cells were dispensed in RPMI 1640 culture medium, supplied with 10% (v/v) fetal calf serum plus 1% (v/v) Penicillin/Streptomycin solution at a cell density of 2.000 cell/100 μL medium/per well (96 well plate). After three hours the cells were washed with PBS (containing calcium and magnesium). 100 μL of culture medium above with 0.1% (v/v) fetal calf serum was added and cultured at 37° C. and 5% CO2-atmosphere. Next day compounds of the present invention diluted in DMSO for appropriate concentrations were added and further 100 μL culture medium 0.5% (v/v) fetal calf serum. After 5 days cell culturing at 37° C. and 5% CO2-atmosphere cells were washed with PBS. 20 μL of glutaraldehyde solution (11% (v/v)) is added and the cells were slightly shaken at room temperature for 15 min. After that the cell were washed 3 times and dried in the air. 100 μL of crystal violet solution (0.1% at pH 3.5) were added and the cells were shaken for 30 min. The cells were washed with tap water and air-dried. The colour is dissolved with 100 μL of acetic acid (10% (v/v)) under strong shaking for 5 min. The absorption was measured at 595 nm wavelength.

T1 sequence (Q02763 770-1124 limits assumed): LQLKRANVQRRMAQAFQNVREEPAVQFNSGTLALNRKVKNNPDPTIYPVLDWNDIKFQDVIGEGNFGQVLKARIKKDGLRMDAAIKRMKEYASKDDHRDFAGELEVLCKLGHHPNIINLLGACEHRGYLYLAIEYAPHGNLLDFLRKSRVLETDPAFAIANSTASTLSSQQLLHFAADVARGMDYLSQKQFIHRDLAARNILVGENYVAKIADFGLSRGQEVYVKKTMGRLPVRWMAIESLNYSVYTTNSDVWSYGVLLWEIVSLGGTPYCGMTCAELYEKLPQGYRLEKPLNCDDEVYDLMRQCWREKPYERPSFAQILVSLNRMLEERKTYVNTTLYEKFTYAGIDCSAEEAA

`CC(=O)c1ccc(-c2cnc3nc2NCCCNS(=O)(=O)c2cccc(c2)N3)cc1` [Example 7, 1-[4-[4,4-dioxo-4λ^6-thia-2,5,9-triaza-1(2,4)-pyrimidina-3(1,3)-benzenacyclononaphan-1^5-yl]phenyl]-ethanone] showed an IC50 [1] of at most 2000 nM and an IC50 at 5 days [2] of over 1000 nM.
For `C=C(c1ccccc1)c1cnc2nc1NCCCNS(=O)(=O)c1cccc(c1)N2` [Example 52, 1^5-(1-phenyl-vinyl)-4-thia-2,5,9-triaza-1(2,4)-pyrimidina-3(1,3)-benzenacyclononaphane 4,4-dioxide], the IC50 [1] was at most 2000 nM.
With `O=S1(=O)NCCCNc2nc(ncc2/C=C\c2ccccc2)Nc2cccc1c2` [Example 51, 1^5-((Z)-styryl)-4-thia-2,5,9-triaza-1(2,4)-pyrimidina-3(1,3)-benzenacyclononaphane 4,4-dioxide] the IC50 [1] was at most 2000 nM.
Compound `CS(=O)(=O)c1ccc(-c2cnc3nc2NCCCNS(=O)(=O)c2cccc(c2)N3)cc1` [Example 11, 1^5-(4-methylsulfonylphenyl)-4-thia-2,5,9-triaza-1(2,4)-pyrimidina-3(1,3)-benzenacyclononaphane 4,4-dioxide] has an IC50 [1] of at most 2000 nM.
In the case of `COC(=O)c1ccc(-c2cnc3nc2NCCCNS(=O)(=O)c2cccc(c2)N3)cc1` [Example 6, methyl 4-[4,4-dioxo-4λ^6-thia-2,5,9-triaza-1(2,4)-pyrimidina-3(1,3)-benzenacyclononaphan-1^5-yl]benzoate], the IC50 [1] is reported as at most 2000 nM and the IC50 at 5 days [2] is reported as over 1000 nM.
With `O=S1(=O)NCCCNc2nc(ncc2-c2ccc(O)cc2)Nc2cccc1c2` [Example 9, 4-[4,4-dioxo-4λ^6-thia-2,5,9-triaza-1(2,4)-pyrimidina-3(1,3)-benzenacyclononaphan-1^5-yl]phenol] the IC50 [1] was at most 2000 nM.
Work on `O=S1(=O)NCCCNc2nc(ncc2-c2ccccc2)Nc2cccc1c2` [Example 8, 1^5-phenyl-4-thia-2,5,9-triaza-1(2,4)-pyrimidina-3(1,3)-benzenacyclononaphane 4,4-dioxide] yielded an IC50 [1] of at most 2000 nM and an IC50 at 5 days [2] of over 1000 nM.
Compound `COc1ccc(-c2cnc3nc2NCCCNS(=O)(=O)c2cccc(c2)N3)cc1` [Example 10, 1^5-(4-methoxyphenyl)-4-thia-2,5,9-triaza-1(2,4)-pyrimidina-3(1,3)-benzenacyclononaphane 4,4-dioxide] has an IC50 [1] of at most 2000 nM and an IC50 at 5 days [2] of over 1000 nM.
